Laboratory results taken from patent US10961510B2, “Exosome active formulation for promoting endothelial cell angiogenesis, and preparation method and application” (INSTITUTE OF MICROCIRCULATION of the CHINESE ACADEMY OF …, priority 2018, dated 2021).

System: human umbilical vein endothelial cells (HUVECs)
Assay: Angiogenesis (tube formation) ability of HUVECs on BME-coated 96-well plate, total branching length by Image J
Type: cell-based
Details: 10 ng/mL TNF-α alone, 18 hours intervention, compared with the Con group, P=0.002
Protocol: The angiogenesis ability of human umbilical vein endothelial cells (HUVECs) was detected by using a 96-well plate coated with a basement membrane extract (BME). 50 μL of a BME solution was added in each well, which was placed in a cell incubator at 37° C. for 30 minutes to form a jelly substance. 10000 endothelial cells were inoculated in each well, and the volume of the endothelial cell culture medium was 100 μL. […]
According to the real-time observation for the angiogenesis morphology, when each of the above groups was subjected to intervention treatment for 18 hours, the angiogenesis morphology of each group reached a status for the optimum observation and quantitation. […]

## TNF-α
  endothelial cell angiogenesis (total branching length of each view field): significantly inhibit endothelial cell angiogenesis
